# Earlier results as cited in US20240279338A1, “Combination Treatment of Cancer” (Ares Trading S.A., priority 2021, published 2024).
# Molecular target: T1, A3 receptor (Homo sapiens, UniProt P0DMS8)
# T1 sequence (P0DMS8 1-318): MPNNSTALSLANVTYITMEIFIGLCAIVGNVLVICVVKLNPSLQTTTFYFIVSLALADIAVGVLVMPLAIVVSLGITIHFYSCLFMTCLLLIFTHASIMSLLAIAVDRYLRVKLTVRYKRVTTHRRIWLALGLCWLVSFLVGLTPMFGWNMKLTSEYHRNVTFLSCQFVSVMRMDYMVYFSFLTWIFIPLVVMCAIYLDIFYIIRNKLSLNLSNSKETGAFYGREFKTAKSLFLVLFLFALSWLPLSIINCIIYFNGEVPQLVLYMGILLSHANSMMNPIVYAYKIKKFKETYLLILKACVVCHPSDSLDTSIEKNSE
# Conditions: cited from earlier work
smiles,measurement,value
Nc1ncnc2c1ncn2[C@@H]1O[C@H](CO)[C@@H](O)[C@H]1O [adenosine],adenosine sensitivity (affinity) of receptor,100 nM
